“And” between values parts separate entries of the source, which are not always exact repeats. Equal values may be shown once.
Test system: 755483-174-R-J1-PDC complex spheroid growth, percent test/control
Assay: Anticancer human tumor 755483-174-R-J1-PDC patient-derived rhabdomyosarcoma cell line growth inhibition [Asc]
Settings: for viability, T/C: stronger effect = lower value; for IC50: curve of compound
Method: Multicellular complex tumor spheroid response to apoptosis pathway targeting inhibitors Alrizomadlin, Pelcitoclax, and Dasminapant in combination with a variety of drugs and investigational agents in selected tumor cell lines
The MDM2 inhibitor alrizomadlin, the Bcl-2/Bcl-xL inhibitor pelcitoclax, and the IAPs inhibitor dasminapant were evaluated both individually and in combination with standard of care and investigational anticancer small molecules within a complex spheroid model of solid tumors. . Complex spheroids include a stromal component modeled by human endothelial cells (HUVEC) and fibroblasts modeled by human mesenchymal stem cells (MSCs). The concentration ranges selected for each drug and investigational agent were based upon clinically achievable concentrations if the clinical Cmax of the agent was known.
Compounds. The drugs and investigational agents: alrizomadlin (APG-115; NSC831270), pelcitoclax (APG-1252; NSC835773), dasminapant (APG-1387;NSC834197), TAK-243 (NSC785004), copanlisib (NSC809693), olaparib (NSC753686), talazoparib (NSC767125), cobimetinib (NSC 768068), eltanexor (KPT-8602, NSC 794443), abemaciclib (NSC 768073), sotorasib (NSC818433), adagrasib (NSC 831453), MRTX-1133 (NSC 836407), Iadademestat (ORY1001, NSC 806812), and RMC-4630 (NSC839698), were obtained from the NCI Developmental Therapeutics Program Chemical Repository. The FDA-approved anticancer drug set is available from the Developmental Therapeutics Program at https://dtp.cancer.gov/organization/dscb/obtaining/available plates.htm. […] The stock solutions were prepared in dimethyl sulfoxide (DMSO, Sigma-Aldrich, St. Louis, MO, cat. D2650) at 800-fold the tested concentration and stored at -70 degrees C prior to their use. All drugs and investigational agents were tested over a range starting from a high concentration at or near the clinical Cmax and decreasing in half-log increments. If the clinical Cmax for an agent had not been determined, the highest concentration tested was 10 microM.
The patient-derived cancer (PDC) cell lines include five colon adenocarcinomas: 186277-243-T-J2-PDC, 616215-338-R-J1-PDC, 439559-082-T-J2-PDC, 463943-066-T-J2-PDC, and 519858-162-T-J1-PDC; three pancreatic carcinomas: 323965-272-R-J2-PDC, 521955-158-R6-J3-PDC, and 521955-158-R2-J5-PDC; two uterine sarcomas: 327498-152-R-J2-PDC and 993429-296-R-J1-PDC; two rhabdomyosarcomas: 755483-174-R-J1-PDC and 772245-204-R-J1-PDC; two soft tissue sarcomas: 126254-015-R-J1-PDC and 494315-158-R-J1-PDC; two malignant fibrous histiocytomas: 317291-083-R-J1-PDC and 596521-263-R-J1-PDC; two breast carcinomas: 171881-019-R-J1-PDC and 885512-296-R-J2-PDC; and one ovarian carcinoma: 6556581-035-R-J-PDC were obtained from the NCI PDMR, (https://pdmr.cancer.gov). The established cell lines HSSY-2 synovial sarcoma (RRID:CVCL 8719), SYO-1 synovial sarcoma (RRID:CVCL_7146), MPNST malignant peripheral neural sheath tumor were obtained from the Sloan Kettering Institute. The following established cell lines were purchased from the American Type Culture Collection (ATCC, Manassas, VA), Sor the received from the NCI repository:, PANC-1 pancreatic carcinoma (CRL-1469, RRID:CVCL_0480), OVCAR-5 ovarian carcinoma (RRID:CVCL_1628), OVCAR-8 ovarian carcinoma (RRID:CVCL_1629), , MCF-7 breast carcinoma (CRL-12584, RRID:CVCL_0031), MDA-MB-231 breast carcinoma (CRL-12532, RRID:CVCL_0062), NCI-H1876 small cell lung carcinoma (CRL-5902, RRID:CVCL_1503), NCI-H510A small cell lung carcinoma (HTB-184, RRID:CVCL_1565), NCI-H1417 (CRL-5869, RRID:CVCL_1469), and NCI-H196 small cell lung carcinoma (CRL-5823, RRID:CVCL_1509). Dr. Peter Houghton (Greehey Children's Cancer Research Institute, University of Texas Health Science Center, San Antonio, TX) provided Rh-18 rhabdomyosarcoma (RRID:CVCL_1659). Pooled donor human umbilical vein endothelial cells (HUVEC, Lonza, cat. CC-2519) and human mesenchymal stem cells (hMSC, Lonza, cat. PT-2501) were purchased from Lonza (Walkersville, MD).
Cell Culture. […]
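Note: spheroids exposed to compounds for seven days before readout.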

Compound | IC50 | viability, T/C (compound 0.00949 µM) | viability, T/C (compound 0.03 µM) | viability, T/C (compound 0.0949 µM) | viability, T/C (compound 0.3 µM) | viability, T/C (compound 0.949 µM) | viability, T/C (compound 3 µM) | viability, T/C (compound 0.000316 µM) | viability, T/C (compound 0.001 µM) | viability, T/C (compound 0.00316 µM) | viability, T/C (compound 0.01 µM) | viability, T/C (compound 0.0316 µM) | viability, T/C (compound 0.1 µM) | viability, T/C (compound 0.000949 µM) | viability, T/C (compound 0.003 µM) | viability, T/C (compound 0.316 µM) | viability, T/C (compound 1 µM) | viability, T/C (compound 3.16 µM) | viability, T/C (compound 10 µM)
Cn1ncnc1[C@H]1c2n[nH]c(=O)c3cc(F)cc(c23)N[C@@H]1c1ccc(F)cc1 | 32.7 nM and 18.1 nM and 6.39 nM |  |  |  |  |  |  | 88.4% and 89% and 81.2% | 83.4% and 79.9% and 66.1% | 84.2% and 86.5% and 53.9% | 74.4% and 58.5% and 52.2% | 50.1% and 45.9% and 31.2% | 41.2% and 38.3% and 23.1% |  |  |  |  |  | 
NC(=O)C(=Cn1cnc(-c2cc(C(F)(F)F)cc(C(F)(F)F)c2)n1)c1cncnc1 | 6.11 nM and 5.25 nM and 6.23 nM | 31.9% and 25.1% and 35.4% | 12.6% and 12.7% and 19.2% | 8.9% and 7.51% and 9.5% | 9.16% and 4.1% and 26.1% |  |  |  |  |  |  |  |  | 83.4% and 72.6% and 109% | 79.3% and 74.5% and 76.7% |  |  |  | 
NC1CCC(NC2CC2c2ccccc2)CC1 (configuration not stated) | > 100 nM |  |  |  |  |  |  | 90.9% and 70.4% and 80.8% | 80.2% and 77.2% and 82.2% | 77.8% and 102% and 61.7% | 82.8% and 87.8% and 74.4% | 68.1% and 94.5% and 113% | 79.2% and 83.4% and 66.6% |  |  |  |  |  | 
O=C(c1cc(Cc2n[nH]c(=O)c3ccccc23)ccc1F)N1CCN(C(=O)C2CC2)CC1 | 713 nM and 2730 nM and 2210 nM |  |  |  |  |  |  |  |  |  |  | 81.5% and 67.3% and 77.6% | 57.5% and 87% and 85.7% |  |  | 70.2% and 82% and 67.8% | 41.8% and 56.8% and 65.6% | 32.3% and 51.1% and 43.3% | 30.1% and 17.6% and 22.7%

Now from value to compound, other results behind:

IC50 | Compound | viability, T/C (compound 0.00949 µM) | viability, T/C (compound 0.03 µM) | viability, T/C (compound 0.0949 µM) | viability, T/C (compound 0.3 µM) | viability, T/C (compound 0.949 µM) | viability, T/C (compound 3 µM) | viability, T/C (compound 0.000316 µM) | viability, T/C (compound 0.001 µM) | viability, T/C (compound 0.00316 µM) | viability, T/C (compound 0.01 µM) | viability, T/C (compound 0.0316 µM) | viability, T/C (compound 0.1 µM) | viability, T/C (compound 0.000949 µM) | viability, T/C (compound 0.003 µM) | viability, T/C (compound 0.316 µM) | viability, T/C (compound 1 µM) | viability, T/C (compound 3.16 µM) | viability, T/C (compound 10 µM)
291 nM and 325 nM and 73 nM | Cc1nc(N2CCC3(CC2)COC(C)C3N)c(CO)nc1Sc1ccnc(N)c1Cl (configuration not stated) | 92.6% and 79% and 106% | 82.3% and 110% and 95.9% | 82.2% and 74.3% and 36.2% | 47.3% and 50.9% and 53.9% | 31.6% and 34.4% and 28.9% | 22.1% and 20.2% and 18.8% |  |  |  |  |  |  |  |  |  |  |  | 
369 nM and 409 nM and 413 nM | O=C(c1ccc(F)c(F)c1Nc1ccc(I)cc1F)N1CC(O)([C@@H]2CCCCN2)C1 |  |  |  |  |  |  |  |  | 109% and 82.3% and 101% | 117% and 73.6% and 104% | 96.3% and 99.1% and 95.6% | 91.4% and 70.1% and 93.1% |  |  | 53.5% and 61.5% and 60.8% | 18.9% and 14.9% and 13.3% |  | 

— PubChem BioAssay AID1963434 (Molecular Pharmacology Branch, DTP, NCI, 2024)
